From PMC5651845, “A New Generation of Arachidonic Acid Analogues as Potential Neurological Agent Targeting Cytosolic Phospholipase A2” (Scientific Reports, 2017)

Tests used:
[1] = target: T1, sPLA2, human recombinant type V (Homo sapiens, UniProt P39877); test: EnzChek phospholipase A2 fluorogenic assay (selectivity) with sPLA2; format: biochemical; details: 10 μM, relative to DMSO control
T1 construct: purchased Cayman Chemical 10009563
T1 sequence (P39877 21-138): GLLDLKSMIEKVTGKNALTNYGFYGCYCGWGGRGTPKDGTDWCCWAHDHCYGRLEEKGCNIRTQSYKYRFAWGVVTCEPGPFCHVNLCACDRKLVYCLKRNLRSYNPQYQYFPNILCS
Description: To further explore their selectivity towards cPLA2, 10 μM of 2g and 2i were evaluated for their inhibition against recombinant sPLA2 using the fluorogenic PLA2 assay (Fig. 3C).
The assay was conducted as described above. Instead of adding cPLA2, it was replaced by sPLA2. 48 μL of 1X phospholipase A2 reaction buffer was added into each well of a 96-wells plate. This was followed by addition of 1 μL of sPLA2, human recombinant type V (10009563, Cayman Chemical) and 1 μL of 1 mM of the respective compound or thioetheramide-PC (62750, Cayman Chemical) dissolved in DMSO. The final concentration of the test compound achieved is 10 μM. The reaction was initiated by adding 50 μL of the substrate solution and incubating at room temperature for 1 h. Fluorescence was measured using a Varioskan plate reader by exciting at 485 nm, while fluorescence emission was detected at 515 nm. Positive control was performed when 1 μL of test compound was replaced by vehicle DMSO. % activity was expressed as the mean value of duplicate wells from four experiments. % activity was calculated by the following formula:2 %activity=fluorescenceoftestedwell−background/fluorescenceofpostivecontrol−background

recombinant cPLA2 = target: T2, recombinant cPLA2 (Homo sapiens, UniProt P47712); test: EnzChek phospholipase A2 fluorogenic assay (IC50); format: biochemical
T2 construct: purchased US Biological P4074-03R
T2 sequence (P47712 1-749): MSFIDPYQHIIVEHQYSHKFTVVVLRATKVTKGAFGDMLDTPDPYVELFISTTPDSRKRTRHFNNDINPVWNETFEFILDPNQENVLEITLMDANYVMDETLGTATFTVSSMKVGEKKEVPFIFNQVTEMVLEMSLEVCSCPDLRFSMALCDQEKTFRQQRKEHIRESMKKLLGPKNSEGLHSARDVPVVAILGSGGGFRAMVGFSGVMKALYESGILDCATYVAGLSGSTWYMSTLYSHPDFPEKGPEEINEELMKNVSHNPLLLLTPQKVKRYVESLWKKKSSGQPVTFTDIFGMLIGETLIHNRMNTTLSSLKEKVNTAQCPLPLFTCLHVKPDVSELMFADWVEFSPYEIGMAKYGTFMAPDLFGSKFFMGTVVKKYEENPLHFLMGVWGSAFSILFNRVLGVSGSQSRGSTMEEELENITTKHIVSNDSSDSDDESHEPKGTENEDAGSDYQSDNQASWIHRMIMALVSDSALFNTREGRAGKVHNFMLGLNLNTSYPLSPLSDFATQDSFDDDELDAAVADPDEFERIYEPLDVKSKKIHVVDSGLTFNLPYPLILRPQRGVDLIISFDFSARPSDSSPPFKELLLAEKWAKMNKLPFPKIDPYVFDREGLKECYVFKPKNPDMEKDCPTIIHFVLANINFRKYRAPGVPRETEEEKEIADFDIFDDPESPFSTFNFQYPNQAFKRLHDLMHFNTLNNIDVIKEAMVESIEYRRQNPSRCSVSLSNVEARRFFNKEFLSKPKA
Description: The assay was conducted as described above. Instead of adding a fixed concentration of the test compound, various concentrations of compound were reconstituted in DMSO. 48 μL of 1X phospholipase A2 reaction buffer were added into each well of a 96-wells plate. This was followed by addition of 1 μL of recombinant cPLA2 (P4074-03R, US Biological) and 1 μL of the respective concentration of the test compound dissolved in DMSO. The reaction was initiated by adding 50 μL of the substrate solution and incubating at room temperature for 1 h. Fluorescence was measured using a Varioskan plate reader by exciting at 485 nm, while fluorescence emission was detected at 515 nm. Positive control was performed when 1 μL of test compound was replaced by vehicle DMSO. IC50 was expressed as the mean value of duplicate wells from three experiments.

[2] = PAMPA with porcine brain lipids (BBB permeation); details: pig, pH 7.4
Description: Thus to explore whether 2i is able to penetrate into the brain, we used PAMPA with porcine brain lipids as the lipid barrier. […] A minimum Pe of […] × 10^−6 cm/s has been cited as the threshold for permeability across the blood brain barrier.
The Parallel Artificial Membrane Permeability Assay (PAMPA) was used to determine the effective permeability (Pe) of 2i. The method reported by Di et al.[53] was followed with modifications. Determinations were carried out on MultiScreen-IP PAMPA assay (donor) plates (MAIPNTR10) and MultiScreen Receiver Plates (MATRNPS50) from Millipore Corporation (USA) with porcine polar brain lipids (Avanti Polar Lipids Inc, Alabaster, AL) as the lipid barrier.
An aliquot (5 µL) of 2% porcine brain lipids in dodecane (ReagentPlus®, Sigma Aldrich, USA) was dispensed into the donor well. A stock solution (5 mM) of 2i prepared in DMSO was diluted with 1x phosphate buffer (PBS, pH 7.4) to give a 50 µM solution. An aliquot (300 µL) of the solution was dispensed into the donor well and an equal volume of buffer (1xPBS with 1% DMSO) was added to the corresponding acceptor well. The donor and acceptor plates were assembled, the unit was placed in a humidified box and gently agitated on a mini shaker at room temperature (25 °C) for 16 h. After this time, aliquots (200 µL) were withdrawn from the donor and acceptor wells, diluted separately to 1 mL with PBS, and quantified at λmax of 290 nm on a Shimadzu UV-1800 Spectrophotometer.
300 µL aliquots of stock solutions (500 µM, 1xPBS, 0.1% DMSO) were dispensed to donor wells as described earlier. Quantification was by UV at λmax of 272 nm (caffeine), 284 nm (carbamazepine), 330 nm (quinidine), 280 nm (dopamine) and 288 nm (propanolol). […] Pe was obtained from (3):3 Pe=−2.303×{VAVD/[(VA+VD)×A×t]}×log{1−[(VA+VD)/(VD.S)]×CA(t)/CD(0)} where VA and VD are the volumes of acceptor (cm^3) and donor (cm^3) wells respectively, A is the area of the surface area of the membrane (0.24 cm^2), t is the permeation time (s). The Pe of each compound was obtained from at least 3 separate experiments using 2 different stock solutions. For each independent determination, triplicates (3 wells) were run for each compound.

IC50 (recombinant cPLA2): 2900 ± 200 nM | fold stronger cPLA2 inhibition than 1a (from IC50) (recombinant cPLA2; relative to 1a): 5.5 fold | Papp at 16 h, 50 µM [2]: 12.3 ± 1.46 ×10⁻⁶ cm/s
SMILES: CCCCC/C=C\C/C=C\C/C=C\C/C=C\CCCCC(=O)Nc1cccc(C(=O)O)c1 [2i]
sPLA2 activity [1]: did not provide a significant change in sPLA2 activity
